This note sets out measurements from article PMC10606151, “The Functional Characteristics and Soluble Expression of Saffron CsCCD2” (International Journal of Molecular Sciences, 2023).

Structures are written as SMILES.

Test [1] has as its target T1, CsCCD2 (TRX-CsCCD2) (Crocus sativus, UniProt A0A075W695).
T1 construct: gene CCD2; CsCCD2 in pET32a, N-terminal TrxA-6xHis-thrombin-S tag fusion, tags kept; synthetic gene with synonymous G1179T; E. coli BL21(DE3) accumulating carotenoids
As to the kind of experiment: in vivo cleavage in zeaxanthin-producing E. coli, UPLC and UPLC-MS/MS of crocetin dialdehyde. Type of test: cell-based. Particulars: E. coli BL21(DE3) with pACCAR25ΔcrtX, 0.3 mM IPTG, 16 °C, 24 h; product crocetin dialdehyde.

In test [2] the target is T1, CsCCD2 (TRX-CsCCD2). As to the kind of experiment: in vivo cleavage in β-carotene-producing E. coli, UPLC and UPLC-MS/MS of crocetin dialdehyde. Type of test: cell-based. The settings on record: E. coli BL21(DE3) with pACCAR16Δcrt, 0.3 mM IPTG, 16 °C, 24 h; product named crocetin dialdehyde.

T1 sequence (A0A075W695 entry or part of it): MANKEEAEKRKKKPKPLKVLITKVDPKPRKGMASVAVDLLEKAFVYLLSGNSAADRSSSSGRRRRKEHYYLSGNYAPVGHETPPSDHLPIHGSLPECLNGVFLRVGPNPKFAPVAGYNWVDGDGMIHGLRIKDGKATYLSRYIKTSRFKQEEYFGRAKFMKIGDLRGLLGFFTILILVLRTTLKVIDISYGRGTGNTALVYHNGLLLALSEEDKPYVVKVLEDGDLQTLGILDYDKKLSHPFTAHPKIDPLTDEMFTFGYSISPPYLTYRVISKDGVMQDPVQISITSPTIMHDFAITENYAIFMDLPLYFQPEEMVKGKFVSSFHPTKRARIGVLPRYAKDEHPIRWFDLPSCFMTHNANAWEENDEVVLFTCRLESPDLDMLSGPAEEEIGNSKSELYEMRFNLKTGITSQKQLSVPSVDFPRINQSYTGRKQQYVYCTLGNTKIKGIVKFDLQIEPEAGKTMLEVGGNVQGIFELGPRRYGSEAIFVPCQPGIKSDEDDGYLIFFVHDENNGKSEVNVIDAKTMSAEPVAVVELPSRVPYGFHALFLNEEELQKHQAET

Take `CC1=C(/C=C/C(C)=C/C=C/C(C)=C/C=C/C=C(C)/C=C/C=C(C)/C=C/C2=C(C)C[C@@H](O)CC2(C)C)C(C)(C)C[C@H](O)C1` [zeaxanthin]: the “in vivo cleavage in zeaxanthin-producing E. coli, UPLC and UPLC-MS/MS of croceti” value in test [1] was “These results revealed that TRX-CsCCD2 cleaved zeaxanthin, β-carotene, and lycopene”.
With `CC1=C(/C=C/C(C)=C/C=C/C(C)=C/C=C/C=C(C)/C=C/C=C(C)/C=C/C2=C(C)CCCC2(C)C)C(C)(C)CCC1` [β-carotene], the “in vivo cleavage in β-carotene-producing E. coli, UPLC and UPLC-MS/MS of croceti” value in test [2] is “These results revealed that TRX-CsCCD2 cleaved zeaxanthin, β-carotene, and lycopene”.
